Results taken from patent publication US7973061B2, “Anaplastic lymphoma kinase modulators and methods of use” (Exelixis, Inc., priority 2004, dated 2011).

Target: T1, ALK (baculovirus expressed human ALK kinase domain F1098-K1410) (Homo sapiens, UniProt Q9UM73)
T1 construct: human ALK kinase domain F1098-K1410; made in house
Experiment: biochemical
Conditions: 1 μM ATP, 4 μM poly-AEKY, 12 nM ALK, 2 hours at ambient temperature; read-out: ALK IC50
In short: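 Baculovirus-expressed human ALK kinase domain (F1098-K1410) was run in a luciferase-coupled chemiluminescent format, with ATP near its KM. After 2 h at ambient temperature, remaining ATP was read by luciferase-luciferin luminescence. IC50 came from 10-point dose-response curves fitted to a four-parameter equation with Hill slope.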

T1 sequence (Q9UM73 1098-1410): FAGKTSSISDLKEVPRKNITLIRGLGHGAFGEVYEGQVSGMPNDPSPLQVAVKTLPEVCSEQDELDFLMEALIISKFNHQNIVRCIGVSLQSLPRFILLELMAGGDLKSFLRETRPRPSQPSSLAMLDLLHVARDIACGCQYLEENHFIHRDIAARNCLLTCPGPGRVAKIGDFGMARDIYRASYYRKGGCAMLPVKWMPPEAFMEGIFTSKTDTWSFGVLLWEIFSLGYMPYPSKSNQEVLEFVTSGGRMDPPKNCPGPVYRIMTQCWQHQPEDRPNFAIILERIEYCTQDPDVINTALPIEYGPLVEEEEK

| SMILES | IC50 |
| --- | --- |
| COc1cc(CNC(=O)c2csc(CNC(=O)COc3ccc(OC(F)(F)F)cc3)n2)cc(OC)c1 [Entry 121, N-{[3,5-bis(methyloxy)phenyl]methyl}-2-({[({4-[(trifluoromethyl)oxy]phenyl}oxy)acetyl]amino}methyl)-1,3-thiazole-4-carboxamide] | 50 to 500 nM |
| O=C(COc1ccc(OC(F)(F)F)cc1)NCc1nc(C(=O)NCCc2ccncc2)cs1 [Entry 48, N-(2-pyridin-4-ylethyl)-2-({[({4-[(trifluoromethyl)oxy]phenyl}oxy)acetyl]amino}methyl)-1,3-thiazole-4-carboxamide] | 50 to 500 nM |
| CC(C)c1ccc(NC(=O)NCc2nc(C(=O)NCCc3cccc(Cl)c3)cs2)cc1 [Entry 25, N-[2-(3-chlorophenyl)ethyl]-2-{[({[4-(1-methylethyl)phenyl]amino}carbonyl)amino]methyl}-1,3-thiazole-4-carboxamide] | < 50 nM |
| CCC(NC(=O)c1csc(CNC(=O)COc2ccc(OC(F)(F)F)cc2)n1)c1ccccc1 (stereo not shown) [Entry 65, N-(1-phenylpropyl)-2-({[({4-[(trifluoromethyl)oxy]phenyl}oxy)acetyl]amino}methyl)-1,3-thiazole-4-carboxamide] | 50 to 500 nM |
| Cc1ccsc1CNC(=O)c1csc(CNC(=O)COc2ccc(OC(F)(F)F)cc2)n1 [Entry 133, N-[(3-methyl-2-thienyl)methyl]-2-({[({4-[(trifluoromethyl)oxy]phenyl}oxy)acetyl]amino}methyl)-1,3-thiazole-4-carboxamide] | 50 to 500 nM |
| CSc1ccccc1CNC(=O)c1coc(CNC(=O)COc2ccc(OC(F)(F)F)cc2)n1 [Entry 186, N-{[2-(methylthio)phenyl]methyl}-2-({[({4-[(trifluoromethyl)oxy]phenyl}oxy)acetyl]amino}methyl)-1,3-oxazole-4-carboxamide] | 50 to 500 nM |
| CC(C)(C)c1ccc(OCC(=O)NCc2nc(C(=O)NCCc3cccc(Cl)c3)cs2)cc1 [Entry 67, N-[2-(3-chlorophenyl)ethyl]-2-{[({[4-(1,1-dimethylethyl)phenyl]oxy}acetyl)amino]methyl}-1,3-thiazole-4-carboxamide] | 50 to 500 nM |

More lines, now with the values ahead:

| IC50 | SMILES |
| --- | --- |
| 500 to 2000 nM | O=C(COc1ccc(OC(F)(F)F)cc1)NCc1nc(C(=O)NCCc2ccc(Cl)cc2)co1 [Entry 246, N-[2-(4-chlorophenyl)ethyl]-2-({[({4-[(trifluoromethyl)oxy]phenyl}oxy)acetyl]amino}methyl)-1,3-oxazole-4-carboxamide] |
| 50 to 500 nM | COc1cc(CCNC(=O)c2coc(CNC(=O)COc3ccc(OC(F)(F)F)cc3)n2)cc(OC)c1 [Entry 207, N-{2-[3,5-bis(methyloxy)phenyl]ethyl}-2-({[({4-[(trifluoromethyl)oxy]phenyl}oxy)acetyl]amino}methyl)-1,3-oxazole-4-carboxamide] |
| 500 to 2000 nM | O=C(COc1ccc(OC(F)(F)F)cc1)NCc1nc(C(=O)NCc2ccc(Cl)cc2)cs1 [Entry 227, N-[(4-chlorophenyl)methyl]-2-({[({4-[(trifluoromethyl)oxy]phenyl}oxy)acetyl]amino}methyl)-1,3-thiazole-4-carboxamide] |
| 500 to 2000 nM | O=C(COc1ccc(OC(F)(F)F)cc1)NCc1nc(C(=O)NCC(c2ccccc2)c2ccccc2)co1 [Entry 226, N-(2,2-diphenylethyl)-2-({[({4-[(trifluoromethyl)oxy]phenyl}oxy)acetyl]amino}methyl)-1,3-oxazole-4-carboxamide] |
| > 2000 nM | O=C(COc1ccc(OC(F)(F)F)cc1)NCc1nc(C(=O)O)cs1 [Entry 302, 2-({[({4-[(trifluoromethyl)oxy]phenyl}oxy)acetyl]amino}methyl)-1,3-thiazole-4-carboxylic acid] |
| 50 to 500 nM | Cc1ccc(CCNC(=O)c2coc(CNC(=O)COc3ccc(OC(F)(F)F)cc3)n2)cc1C [Entry 211, N-[2-(3,4-dimethylphenyl)ethyl]-2-({[({4-[(trifluoromethyl)oxy]phenyl}oxy)acetyl]amino}methyl)-1,3-oxazole-4-carboxamide] |
